Measured values reported in patent publication US10336702B2, “Pharmaceutically active compounds” (BERGENBIO ASA, priority 2015, dated 2019).

Columns and labels:
p-Akt3 in WM115 cells = biological target: T1, p-Akt3 in WM115 cells (Homo sapiens, UniProt Q9Y243); assay: Phospho-Akt cellular SureFire assay, p-Akt3 in WM115 cells; format: cell-based; details: insulin stimulated, read-out: Biological Assay 2 IC50 (nM) Akt3 WM115
T1 construct: SureFire assays to detect cellular p-Akt1, p-Akt2 and p-Akt3 levels in WM115 cells (Akt2/3) and LNCaP cells (Akt1); endogenous in cells; host or cells: WM115 (ECACC 91061232), insulin-stimulated
T1 sequence (Q9Y243 whole entry): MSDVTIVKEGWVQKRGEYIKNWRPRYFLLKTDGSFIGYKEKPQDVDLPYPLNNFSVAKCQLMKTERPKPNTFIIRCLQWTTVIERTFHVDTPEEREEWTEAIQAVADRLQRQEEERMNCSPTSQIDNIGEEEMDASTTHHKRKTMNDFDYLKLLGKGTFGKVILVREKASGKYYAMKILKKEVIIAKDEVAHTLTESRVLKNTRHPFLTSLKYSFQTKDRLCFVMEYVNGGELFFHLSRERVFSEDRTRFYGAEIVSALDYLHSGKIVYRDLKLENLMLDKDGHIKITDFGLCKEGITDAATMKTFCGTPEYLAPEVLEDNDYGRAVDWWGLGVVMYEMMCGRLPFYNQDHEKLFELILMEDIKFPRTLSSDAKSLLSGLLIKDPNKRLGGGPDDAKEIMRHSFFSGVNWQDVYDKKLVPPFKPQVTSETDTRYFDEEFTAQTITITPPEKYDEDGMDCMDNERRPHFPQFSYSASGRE
Method in brief: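 pThr308-Akt3 in lysates was quantified by bead-proximity SureFire detection, pairing a phospho-specific antibody with a total Akt3 antibody. Before lysis, WM115 cells in 0.1% FBS medium were treated for 15 min at 37 °C with compound (final DMSO 0.3%), following a 10 min stimulation with 100 nM insulin. IC50 was obtained by 4-parameter fitting.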

p-Akt2 in WM115 cells = biological target: T2, p-Akt2 in WM115 cells (Homo sapiens, UniProt P31751); assay: Phospho-Akt cellular SureFire assay, p-Akt2 in WM115 cells; format: cell-based; details: insulin stimulated, read-out: Biological Assay 2 IC50 (nM) Akt2 WM115
T2 construct: SureFire assays to detect cellular p-Akt1, p-Akt2 and p-Akt3 levels in WM115 cells (Akt2/3) and LNCaP cells (Akt1); endogenous in cells; host or cells: WM115 (ECACC 91061232), insulin-stimulated
T2 sequence (P31751 whole entry): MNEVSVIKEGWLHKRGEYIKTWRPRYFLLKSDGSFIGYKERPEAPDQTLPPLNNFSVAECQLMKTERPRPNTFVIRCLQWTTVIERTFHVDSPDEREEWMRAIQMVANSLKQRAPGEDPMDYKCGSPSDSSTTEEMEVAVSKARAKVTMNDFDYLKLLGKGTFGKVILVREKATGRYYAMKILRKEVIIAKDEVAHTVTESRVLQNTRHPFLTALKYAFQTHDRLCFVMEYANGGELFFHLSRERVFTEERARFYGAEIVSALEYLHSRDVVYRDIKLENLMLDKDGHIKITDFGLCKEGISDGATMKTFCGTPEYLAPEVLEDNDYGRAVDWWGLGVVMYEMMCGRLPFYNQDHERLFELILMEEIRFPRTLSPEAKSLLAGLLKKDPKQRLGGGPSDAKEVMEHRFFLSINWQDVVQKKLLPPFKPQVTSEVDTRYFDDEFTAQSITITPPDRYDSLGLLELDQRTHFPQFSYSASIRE
Method in brief: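 Readout is a bead-proximity SureFire assay pairing a pThr308 Akt antibody with a total Akt2 antibody, lysate and beads incubated 2 h plus 2 h at room temperature in the dark. Before lysis, serum-starved WM115 cells received 100 nM insulin (10 min), then test compound (15 min, 0.3% DMSO); IC50 by 4-parameter equation.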

Akt2 = biological target: T3, Akt2 (Homo sapiens, UniProt P31751); assay: Akt activation assay (PDK1-mediated activation, LANCE Ultra crosstide TR-FRET), Akt2; format: biochemical; details: read-out: Biological Assay 1 IC50 (nM) Akt2
T3 construct: unspecified tag, removed (detagged) (cleaved yes); purchased SignalChem and Proteros (Akt2); Merck Millipore (PDK1) 14-452 (PDK1); none given for Akt2
T3 sequence (P31751 whole entry): as above
Method in brief: (§1)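 This TR-FRET readout (Eu-anti-phospho-crosstide antibody, 665/615 nm) measured PDK1-driven activation of Akt. Compound was first preincubated with each Akt isoform: Akt1 5 nM; Akt2 15 nM SignalChem or 5 nM Proteros; Akt3 3 nM SignalChem or 5 nM Proteros. Reactions then ran 30 min with 5 nM PDK1, lipid vesicles containing 0.55 µM PtdIns(3,4,5)P3, 100 µM ATP and 100 nM crosstide at pH 7.5, and IC50 came from a 4-parameter equation.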

Akt3 = biological target: T4, Akt3 (Homo sapiens, UniProt Q9Y243); assay: Akt activation assay (PDK1-mediated activation, LANCE Ultra crosstide TR-FRET), Akt3; format: biochemical; details: read-out: Biological Assay 1 IC50 (nM) Akt3
T4 construct: unspecified tag, removed (detagged) (cleaved yes); purchased SignalChem and Proteros (Akt3); Merck Millipore (PDK1) 14-452 (PDK1); none given for Akt3
T4 sequence (Q9Y243 whole entry): as the sequence (Q9Y243 whole entry) above
Method in brief: as §1

Akt1 = biological target: T5, Akt1 (Homo sapiens, UniProt P31749); assay: Akt activation assay (PDK1-mediated activation, LANCE Ultra crosstide TR-FRET), Akt1; format: biochemical; details: read-out: Biological Assay 1 IC50 (nM) Akt1
T5 construct: unspecified tag, removed (detagged) (cleaved yes); purchased SignalChem and Proteros (Akt1); Merck Millipore (PDK1) 14-452 (PDK1); none given for Akt1
T5 sequence (P31749 whole entry): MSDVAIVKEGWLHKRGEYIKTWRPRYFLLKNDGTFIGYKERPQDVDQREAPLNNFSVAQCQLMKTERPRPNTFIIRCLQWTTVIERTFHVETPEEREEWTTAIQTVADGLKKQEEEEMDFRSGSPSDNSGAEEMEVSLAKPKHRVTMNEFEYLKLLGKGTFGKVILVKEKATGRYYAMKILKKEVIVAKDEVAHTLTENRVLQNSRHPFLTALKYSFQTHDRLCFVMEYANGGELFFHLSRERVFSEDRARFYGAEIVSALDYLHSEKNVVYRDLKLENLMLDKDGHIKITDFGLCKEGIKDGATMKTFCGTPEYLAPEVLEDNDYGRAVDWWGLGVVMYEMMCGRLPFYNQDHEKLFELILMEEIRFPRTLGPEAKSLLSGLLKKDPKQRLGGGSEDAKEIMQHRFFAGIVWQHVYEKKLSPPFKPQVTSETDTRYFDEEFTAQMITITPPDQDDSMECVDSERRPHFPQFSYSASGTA
Method in brief: as §1

p-Akt1 in LNCaP cells = biological target: T6, p-Akt1 in LNCaP cells (Homo sapiens, UniProt P31749); assay: Phospho-Akt cellular SureFire assay, p-Akt1 in LNCaP cells; format: cell-based; details: read-out: Biological Assay 2 IC50 (nM) Akt1 LNCaP
T6 construct: SureFire assays to detect cellular p-Akt1, p-Akt2 and p-Akt3 levels in WM115 cells (Akt2/3) and LNCaP cells (Akt1); endogenous in cells; host or cells: LNCaP (ECACC 89110211)
T6 sequence (P31749 whole entry): as above
Method in brief: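 Phospho-Thr308 Akt1 detected by AlphaScreen SureFire proximity beads in LNCaP lysates after 15 min compound treatment at 37 °C in 0.1% FBS medium, unstimulated, 0.3% DMSO. Cells plated at 5×10^4/well overnight; IC50 from a 4-parameter equation.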

CN(C(=O)C1CC1)[C@H]1CC[C@H](CC(=O)Nc2cnc(-c3ccc(C(C)(C)N)cc3)c(-c3ccsc3)c2)CC1 [Example 27, N-(trans-4-(2-((6-(4-(2-aminopropan-2-yl)phenyl)-5-(thiophen-3-yl)pyridin-3-yl)amino)-2-oxoethyl)cyclohexyl)-N-methylcyclopropanecarboxamide]
IC50 (p-Akt3 in WM115 cells): 380 nM | IC50 (p-Akt2 in WM115 cells): 10000 nM | IC50 (Akt2): 12000 nM | IC50 (Akt3): 680 nM | IC50 (Akt1): > 30000 nM | IC50 (p-Akt1 in LNCaP cells): > 30000 nM

CC(C)(N)c1ccc(-c2ncc(NC(=O)C[C@H]3CC[C@H](NC(=O)CC4CC4)CC3)cc2-c2ccccc2)cc1 [Example 29, N-(6-(4-(2-aminopropan-2-yl)phenyl)-5-phenylpyridin-3-yl)-2-(trans-4-(2-cyclopropylacetamido)cyclohexyl)acetamide]
IC50 (p-Akt3 in WM115 cells): 170 nM | IC50 (p-Akt2 in WM115 cells): 8400 nM | IC50 (Akt2): 2200 nM | IC50 (Akt3): 53 nM | IC50 (Akt1): > 33000 nM | IC50 (p-Akt1 in LNCaP cells): > 13000 nM

CC(=O)N(C)[C@H]1CC[C@H](CC(=O)Nc2cc(-c3ccccc3)c(-c3ccc(C(C)(C)N)cc3)nn2)CC1 [Example 30, N-(6-(4-(2-aminopropan-2-yl)phenyl)-5-phenylpyridazin-3-yl)-2-(trans-4-(N-methylacetamido)cyclohexyl)acetamide]
IC50 (p-Akt3 in WM115 cells): 72 nM | IC50 (p-Akt2 in WM115 cells): 6800 nM | IC50 (Akt2): 12000 nM | IC50 (Akt3): 470 nM | IC50 (Akt1): > 30000 nM | IC50 (p-Akt1 in LNCaP cells): > 30000 nM

CC(=O)N(C)[C@H]1CC[C@H](CC(=O)Nc2cnc(-c3ccc(C(C)(C)N)c(F)c3)c(-c3ccccc3)c2)CC1 [Example 31, N-(6-(4-(2-aminopropan-2-yl)-3-fluorophenyl)-5-phenylpyridin-3-yl)-2-(trans-4-(N-methylacetamido)cyclohexyl)acetamide]
IC50 (p-Akt3 in WM115 cells): 440 nM | IC50 (p-Akt2 in WM115 cells): > 30000 nM | IC50 (Akt2): > 15000 nM | IC50 (Akt3): 1700 nM | IC50 (Akt1): > 30000 nM | IC50 (p-Akt1 in LNCaP cells): > 30000 nM

CC(=O)N(C)[C@H]1CC[C@H](CC(=O)Nc2cnc(-c3ccc([C@]4(N)C[C@H](F)C4)cc3)c(-c3ccccc3)c2)CC1 [Example 32, N-(6-(4-(trans-1-amino-3-fluorocyclobutyl)phenyl)-5-phenylpyridin-3-yl)-2-(trans-4-(N-methylacetamido)cyclohexyl)acetamide]
IC50 (p-Akt3 in WM115 cells): 36 nM | IC50 (p-Akt2 in WM115 cells): 1400 nM | IC50 (Akt2): 470 nM | IC50 (Akt3): 34 nM | IC50 (Akt1): 2000 nM | IC50 (p-Akt1 in LNCaP cells): 6900 nM

COC(=O)N(C)[C@H]1CC[C@H](CC(=O)Nc2cnc(-c3ccc(C(C)(C)N)cc3)c(-c3ccccc3)c2)CC1 [Example 34, methyl (trans-4-(2-((6-(4-(2-aminopropan-2-yl)phenyl)-5-phenylpyridin-3-yl)amino)-2-oxoethyl)cyclohexyl)(methyl)carbamate]
IC50 (p-Akt3 in WM115 cells): 150 nM | IC50 (p-Akt2 in WM115 cells): 5200 nM | IC50 (Akt2): 6500 nM | IC50 (Akt3): 380 nM | IC50 (Akt1): > 29000 nM | IC50 (p-Akt1 in LNCaP cells): > 15000 nM

CN(C1CCC(CC(=O)Nc2cnc(-c3ccc(C(C)(C)N)cc3)c(-c3ccccc3)c2)CC1)C1(C)COC1 (stereo not drawn) [Example 35, N-(6-(4-(2-aminopropan-2-yl)phenyl)-5-phenylpyridin-3-yl)-2-(4-(methyl(3-methyloxetan-3-yl)amino)cyclohexyl)acetamide]
IC50 (p-Akt3 in WM115 cells): 1500 nM | IC50 (p-Akt2 in WM115 cells): 17000 nM | IC50 (Akt2): 25000 nM | IC50 (Akt3): 17000 nM | IC50 (Akt1): > 30000 nM | IC50 (p-Akt1 in LNCaP cells): > 30000 nM

COC1(OC)CCC(CC(=O)Nc2cnc(-c3ccc(C4(N)COC4)cc3)c(-c3ccccc3)c2)CC1 [Example 36, N-(6-(4-(3-aminooxetan-3-yl)phenyl)-5-phenylpyridin-3-yl)-2-(4,4-dimethoxycyclohexyl)acetamide]
IC50 (p-Akt3 in WM115 cells): 230 nM | IC50 (p-Akt2 in WM115 cells): 3800 nM | IC50 (Akt2): > 30000 nM | IC50 (Akt3): 100 nM | IC50 (Akt1): > 30000 nM | IC50 (p-Akt1 in LNCaP cells): > 30000 nM

NC1(c2ccc(-c3ncc(NC(=O)C[C@H]4CC[C@H](N5CCOCC5)CC4)cc3-c3ccsc3)cc2)CCC1 [Example 38, N-(6-(4-(1-aminocyclobutyl)phenyl)-5-(thiophen-3-yl)pyridin-3-yl)-2-(trans-4-morpholinocyclohexyl)acetamide]
IC50 (p-Akt3 in WM115 cells): 92 nM | IC50 (p-Akt2 in WM115 cells): 3000 nM | IC50 (Akt2): 1900 nM | IC50 (Akt3): 560 nM | IC50 (Akt1): 9000 nM | IC50 (p-Akt1 in LNCaP cells): 7000 nM

CC(C)(N)c1ccc(-c2ncc(NC(=O)C[C@H]3CC[C@H](N4CCOC4=O)CC3)cc2-c2ccccc2)cc1 [Example 42, N-(6-(4-(2-aminopropan-2-yl)phenyl)-5-phenylpyridin-3-yl)-2-(trans-4-(2-oxooxazolidin-3-yl)cyclohexyl)acetamide]
IC50 (p-Akt3 in WM115 cells): 210 nM | IC50 (p-Akt2 in WM115 cells): 7900 nM | IC50 (Akt2): 4500 nM | IC50 (Akt3): 960 nM | IC50 (Akt1): > 30000 nM | IC50 (p-Akt1 in LNCaP cells): > 30000 nM

CC(=O)N(C)[C@H]1CC[C@H](CC(=O)Nc2cnc(-c3ccc(C(C)(C)N)nc3)c(-c3ccccc3)c2)CC1 [Example 43, N-(6′-(2-aminopropan-2-yl)-3-phenyl-[2,3′-bipyridin]-5-yl)-2-(trans-4-(N-methylacetamido)cyclohexyl)acetamide]
IC50 (p-Akt3 in WM115 cells): 1700 nM | IC50 (p-Akt2 in WM115 cells): > 30000 nM | IC50 (Akt2): > 30000 nM | IC50 (Akt3): 1100 nM | IC50 (Akt1): > 30000 nM | IC50 (p-Akt1 in LNCaP cells): > 30000 nM

COC(=O)N(C)[C@H]1CC[C@H](CC(=O)Nc2cnc(-c3ccc([C@]4(N)C[C@](C)(O)C4)cc3)c(-c3ccccc3)c2)CC1 [Example 44, Methyl (trans-4-(2-((6-(4-(trans-1-amino-3-hydroxy-3-methylcyclobutyl)phenyl)-5-phenylpyridin-3-yl)amino)-2-oxoethyl)cyclohexyl)(methyl)carbamate]
IC50 (p-Akt3 in WM115 cells): 6 nM | IC50 (p-Akt2 in WM115 cells): 350 nM | IC50 (Akt2): 110 nM | IC50 (Akt3): 22 nM | IC50 (Akt1): 1200 nM | IC50 (p-Akt1 in LNCaP cells): 1100 nM

N[C@]1(c2ccc(-c3nnc(NC(=O)C[C@H]4CC[C@H](N5CCOC5=O)CC4)cc3-c3ccccc3)cc2)C[C@@H](F)C1 [Example 45, N-(6-(4-(trans-1-amino-3-fluorocyclobutyl)phenyl)-5-phenylpyridazin-3-yl)-2-(trans-4-(2-oxooxazolidin-3-yl)cyclohexyl)acetamide]
IC50 (p-Akt3 in WM115 cells): 38 nM | IC50 (p-Akt2 in WM115 cells): > 3600 nM | IC50 (Akt2): 380 nM | IC50 (Akt3): 67 nM | IC50 (Akt1): > 17000 nM | IC50 (p-Akt1 in LNCaP cells): > 30000 nM

CN(C(=O)C1CCC1)[C@H]1CC[C@H](CC(=O)Nc2cnc(-c3ccc(C(C)(C)N)cc3)c(-c3ccccc3)c2)CC1 [Example 47, N-(trans-4-(2-((6-(4-(2-aminopropan-2-yl)phenyl)-5-phenylpyridin-3-yl)amino)-2-oxoethyl)cyclohexyl)-N-methylcyclobutanecarboxamide]
IC50 (p-Akt3 in WM115 cells): 240 nM | IC50 (p-Akt2 in WM115 cells): 5300 nM | IC50 (Akt2): 6100 nM | IC50 (Akt3): 75 nM | IC50 (Akt1): > 30000 nM | IC50 (p-Akt1 in LNCaP cells): > 30000 nM

NC1(c2ccc(-c3ncc(NC(=O)[C@@H](F)C4CCN(S(=O)(=O)C5CC5)CC4)cc3-c3ccccc3)cc2)CCC1 [Example 50, (S)—N-(6-(4-(1-aminocyclobutyl)phenyl)-5-phenylpyridin-3-yl)-2-(1-(cyclopropylsulfonyl)piperidin-4-yl)-2-fluoroacetamide]
IC50 (p-Akt3 in WM115 cells): 580 nM | IC50 (p-Akt2 in WM115 cells): 6800 nM | IC50 (Akt2): 670 nM | IC50 (Akt3): 370 nM | IC50 (Akt1): 5800 nM | IC50 (p-Akt1 in LNCaP cells): > 30000 nM

COC(=O)N(C(C)C)[C@H]1CC[C@H](CC(=O)Nc2cnc(-c3ccc(C4(N)CCC4)cc3)c(-c3ccccc3)c2)CC1 [Example 51, Methyl (trans-4-(2-((6-(4-(1-aminocyclobutyl)phenyl)-5-phenylpyridin-3-yl)amino)-2-oxoethyl)cyclohexyl)(isopropyl)carbamate]
IC50 (p-Akt3 in WM115 cells): 670 nM | IC50 (p-Akt2 in WM115 cells): 9100 nM | IC50 (Akt2): 1500 nM | IC50 (Akt3): 190 nM | IC50 (Akt1): 8900 nM | IC50 (p-Akt1 in LNCaP cells): > 30000 nM
